In brackets after ≈: the same amount, converted by molar mass. Read-outs that look alike come from different tables or passages of the source.
How the values were obtained:
[1] = system: Mycobacterium smagmatis 607 ™; experiment: MIC, broth dilution method, dark condition; format: cell-based, Mycobacterium smegmatis; settings: for MIC: read-out: MIC (μg/mL) against M. smegmatis 607 ™ (wild-type)
[2] = system: M. smegmatis 607 ™ (RB mutant); format: cell-based, Mycobacterium smegmatis; settings: dark condition; triplicated
[3] = system: biofilms of S. aureus 6508™; experiment: Biofilm eradication assay; format: cell-based, Staphylococcus aureus; settings: linezolid at 600 μg/mL
Method: 62:394-399 (2013)], and was used as a control.
Linezolid was applied as a positive control at very high concentration of 600 μg/mL (>100×MIC for the planktonic cells) in biofilm assays reported by Kurosu et al., Molecules 27:322 (2022).

For NNC(=O)c1ccncc1 [Isoniazid (INH), Isoniazid], the MIC ([1]; dark condition, triplicated) was 1.56 µg/mL (≈ 11.4 µM).

With CO[C@H]1/C=C/O[C@@]2(C)Oc3c(C)c(O)c4c(O)c(c(/C=N/N5CCN(C)CC5)c(O)c4c3C2=O)NC(=O)/C(C)=C\C=C\[C@H](C)[C@H](O)[C@@H](C)[C@@H](O)[C@@H](C)[C@H](OC(C)=O)[C@@H]1C [Rifampicin] the MIC [1] was 1.56 µg/mL (≈ 1.9 µM).

With Capreomycin the “MIC (μg/mL) against M. smegmatis 607 ™ (RB mutant)” value [2] was 3.13 µg/mL and the “MIC (μg/mL) against M. smegmatis 607 ™ (wild-type)” value ([1]; dark condition, triplicated) was 3.13 µg/mL.

For CC(=O)NC[C@H]1CN(c2ccc(N3CCOCC3)c(F)c2)C(=O)O1 [linezolid, reference compound], the “biofilm eradication efficacy of positive control compared with RB” value [3] was “the same level of efficacy”.

CCc1cc(C(N)=S)ccn1 [Ethionamide (ETH), Ethionamide] gave an MIC [1] of 12.5 µg/mL (≈ 75.2 µM).

With NC[C@H]1O[C@@H](O[C@H]([C@H]2O[C@@H](n3ccc(=O)[nH]c3=O)[C@H](O)[C@@H]2O)[C@H](NCCCC(=O)NCc2ccc(N3CCC(Oc4ccc(OC(F)(F)F)cc4)CC3)cc2)C(N)=O)[C@H](O)[C@@H]1O [APPB, aminouridyl phenoxypiperidinylbenzyl butanamide] the “MIC (μg/mL) against M. smegmatis 607 ™ (RB mutant)” value [2] was 0.20 µg/mL (≈ 0.227 µM) and the “MIC (μg/mL) against M. smegmatis 607 ™ (wild-type)” value ([1]; dark condition, triplicated) was 0.20 µg/mL (≈ 0.227 µM).

For NCC[C@H](O)C(=O)N[C@@H]1C[C@H](N)[C@@H](O[C@H]2O[C@H](CN)[C@@H](O)[C@H](O)[C@H]2O)[C@H](O)[C@H]1O[C@H]1O[C@H](CO)[C@@H](O)[C@H](N)[C@H]1O [Amikacin], the MIC ([1]; dark condition, triplicated) was 0.78 µg/mL (≈ 1.33 µM).

Source: patent publication US12661335B2, “Halogenated xanthene-containing topical anti-gram-positive bacterial ophthalmic composition and method” (Provectus Pharmatech, Inc., priority 2021, dated 2026)
